Source: ChEMBL document CHEMBL4043239, “Discovery and optimization of oxadiazole-based FLAP inhibitors” (Bioorg Med Chem Lett, 2017)
Converted amounts (≈) assume the structure as drawn.

Assays:
[1] = target: T1, Arachidonate 5-lipoxygenase-activating protein (Homo sapiens, UniProt P20292); experiment: Displacement of [125I]-L-691831 from human FLAP expressed in Sf9 cell membranes after 2 hrs by Topcount method
T1 sequence (P20292 whole entry): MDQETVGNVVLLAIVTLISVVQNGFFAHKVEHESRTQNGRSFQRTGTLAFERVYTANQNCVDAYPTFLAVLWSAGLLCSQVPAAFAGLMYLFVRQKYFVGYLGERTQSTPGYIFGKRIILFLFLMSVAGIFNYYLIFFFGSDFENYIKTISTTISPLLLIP

[2] = target: T1, Arachidonate 5-lipoxygenase-activating protein; experiment: Inhibition of FLAP in calcimycin-stimulated human whole blood assessed as reduction in LTB4 production pretreated for 15 mins followed by calcimycin addition after 30 mins by ELISA
hERG (KCNH2) [3] = target: T2, hERG (KCNH2) (Homo sapiens, UniProt Q12809); experiment: Inhibition of human ERG expressed in CHO cells at 41 uM at -70mV holding potential measured after 300 secs by IonWorks electrophysiology method relative to control; type: cell-based; details: CHO cells expressing human ERG
hERG (KCNH2) [4] = target: T2, hERG (KCNH2); experiment: Inhibition of human ERG expressed in CHO cells at 11 uM at -70mV holding potential measured after 300 secs by IonWorks electrophysiology method relative to control; type: cell-based; details: CHO cells expressing human ERG
[5] = Aqueous kinetic solubility of the compound at pH 7.4; type: physicochemical; details: for Kinetic_solubility: buffer; for solubility kinetic: aqueous, read-out: Kinetic_solubility
[6] = Stability in human liver microsomes at 1 uM pretreated for 10 mins followed by NADPH addition after 60 mins by LC/MS analysis relative to hepatic blood flow; type: ADME, microsome; details: read-out: Stability
[7] = Aqueous equilibrium solubility in citric acid/disodium phosphate buffer at pH 6.8 at 1 uM after 24 hrs by HPLC method; type: physicochemical; details: for solubility: buffer, pH 6.8, 24 h, 1 µM; for solubility thermodynamic at 24 h, 1 µM: citric acid/disodium phosphate buffer, pH 6.8
hERG (KCNH2) [8] = target: T2, hERG (KCNH2); experiment: Inhibition of human ERG expressed in CHO cells at 30 uM at -70mV holding potential measured after 300 secs by IonWorks electrophysiology method relative to control; type: cell-based; details: CHO cells expressing human ERG
hERG (KCNH2) [9] = target: T2, hERG (KCNH2); experiment: Inhibition of human ERG expressed in HEK293 cells at 30 uM by whole-cell patch clamp method relative to control; type: cell-based; details: HEK293 cells expressing human ERG
Rattus norvegicus [10] = experiment: Clearance in Sprague-Dawley rat at 1 mg/kg, iv by HPLC-MS/MS analysis relative to hepatic blood flow; type: ADME, organism-based; details: in vivo
[11] = Volume of distribution at steady state in Sprague-Dawley rat at 1 mg/kg, iv by HPLC-MS/MS analysis; type: ADME, organism-based; details: in vivo, read-out: Vdss
[12] = Mean residence time in Sprague-Dawley rat at 1 mg/kg, iv by HPLC-MS/MS analysis; type: ADME, organism-based; details: in vivo
[13] = Oral bioavailability in Sprague-Dawley rat at 3 mg/kg by HPLC-MS/MS analysis; type: ADME, organism-based; details: in vivo
[14] = Clearance in human hepatocytes at 1 uM measured after 1 hr by LC/MS analysis relative to hepatic blood flow; type: ADME, cell-based, Hepatocyte
hERG (KCNH2) [15] = target: T2, hERG (KCNH2); experiment: Inhibition of human ERG expressed in CHO cells at 12 uM at -70mV holding potential measured after 300 secs by IonWorks electrophysiology method relative to control; type: cell-based; details: CHO cells expressing human ERG
[16] = target: T3, Arachidonate 5-lipoxygenase-activating protein (Homo sapiens) (UniProt P20292); experiment: Ratio of IC50 for FLAP in calcimycin-stimulated human whole blood to IC50 for displacement of [125I]-L-691831 from human FLAP expressed in Sf9 cell membranes
T3 sequence (whole entry): T1 sequence (P20292 whole entry)

hERG (KCNH2) [17] = target: T2, hERG (KCNH2); experiment: Inhibition of human ERG expressed in CHO cells at 17 uM at -70mV holding potential measured after 300 secs by IonWorks electrophysiology method relative to control; type: cell-based; details: CHO cells expressing human ERG
hERG (KCNH2) [18] = target: T2, hERG (KCNH2); experiment: Inhibition of human ERG expressed in CHO cells at 14 uM at -70mV holding potential measured after 300 secs by IonWorks electrophysiology method relative to control; type: cell-based; details: CHO cells expressing human ERG
hERG (KCNH2) [19] = target: T2, hERG (KCNH2); experiment: Inhibition of human ERG expressed in CHO cells at 10 uM at -70mV holding potential measured after 300 secs by IonWorks electrophysiology method relative to control; type: cell-based; details: CHO cells expressing human ERG
hERG (KCNH2) [20] = target: T2, hERG (KCNH2); experiment: Inhibition of human ERG expressed in CHO cells at 34 uM at -70mV holding potential measured after 300 secs by IonWorks electrophysiology method relative to control; type: cell-based; details: CHO cells expressing human ERG
hERG (KCNH2) [21] = target: T2, hERG (KCNH2); experiment: Inhibition of human ERG expressed in HEK293 cells at 34 uM by whole-cell patch clamp method relative to control; type: cell-based; details: HEK293 cells expressing human ERG
Rattus norvegicus [22] = experiment: Clearance in Wistar rat at 1 mg/kg, iv by HPLC-MS/MS analysis relative to hepatic blood flow; type: ADME, organism-based; details: in vivo
[23] = Volume of distribution at steady state in Wistar rat at 1 mg/kg, iv by HPLC-MS/MS analysis; type: ADME, organism-based; details: in vivo, read-out: Vdss
[24] = Mean residence time in Wistar rat at 1 mg/kg, iv by HPLC-MS/MS analysis; type: ADME, organism-based; details: in vivo
[25] = Oral bioavailability in Wistar rat at 3 mg/kg by HPLC-MS/MS analysis; type: ADME, organism-based; details: in vivo
hERG (KCNH2) [26] = target: T2, hERG (KCNH2); experiment: Inhibition of human ERG expressed in CHO cells at 16 uM at -70mV holding potential measured after 300 secs by IonWorks electrophysiology method relative to control; type: cell-based; details: CHO cells expressing human ERG
hERG (KCNH2) [27] = target: T2, hERG (KCNH2); experiment: Inhibition of human ERG expressed in CHO cells at 42 uM at -70mV holding potential measured after 300 secs by IonWorks electrophysiology method relative to control; type: cell-based; details: CHO cells expressing human ERG

T2 sequence (Q12809 whole entry): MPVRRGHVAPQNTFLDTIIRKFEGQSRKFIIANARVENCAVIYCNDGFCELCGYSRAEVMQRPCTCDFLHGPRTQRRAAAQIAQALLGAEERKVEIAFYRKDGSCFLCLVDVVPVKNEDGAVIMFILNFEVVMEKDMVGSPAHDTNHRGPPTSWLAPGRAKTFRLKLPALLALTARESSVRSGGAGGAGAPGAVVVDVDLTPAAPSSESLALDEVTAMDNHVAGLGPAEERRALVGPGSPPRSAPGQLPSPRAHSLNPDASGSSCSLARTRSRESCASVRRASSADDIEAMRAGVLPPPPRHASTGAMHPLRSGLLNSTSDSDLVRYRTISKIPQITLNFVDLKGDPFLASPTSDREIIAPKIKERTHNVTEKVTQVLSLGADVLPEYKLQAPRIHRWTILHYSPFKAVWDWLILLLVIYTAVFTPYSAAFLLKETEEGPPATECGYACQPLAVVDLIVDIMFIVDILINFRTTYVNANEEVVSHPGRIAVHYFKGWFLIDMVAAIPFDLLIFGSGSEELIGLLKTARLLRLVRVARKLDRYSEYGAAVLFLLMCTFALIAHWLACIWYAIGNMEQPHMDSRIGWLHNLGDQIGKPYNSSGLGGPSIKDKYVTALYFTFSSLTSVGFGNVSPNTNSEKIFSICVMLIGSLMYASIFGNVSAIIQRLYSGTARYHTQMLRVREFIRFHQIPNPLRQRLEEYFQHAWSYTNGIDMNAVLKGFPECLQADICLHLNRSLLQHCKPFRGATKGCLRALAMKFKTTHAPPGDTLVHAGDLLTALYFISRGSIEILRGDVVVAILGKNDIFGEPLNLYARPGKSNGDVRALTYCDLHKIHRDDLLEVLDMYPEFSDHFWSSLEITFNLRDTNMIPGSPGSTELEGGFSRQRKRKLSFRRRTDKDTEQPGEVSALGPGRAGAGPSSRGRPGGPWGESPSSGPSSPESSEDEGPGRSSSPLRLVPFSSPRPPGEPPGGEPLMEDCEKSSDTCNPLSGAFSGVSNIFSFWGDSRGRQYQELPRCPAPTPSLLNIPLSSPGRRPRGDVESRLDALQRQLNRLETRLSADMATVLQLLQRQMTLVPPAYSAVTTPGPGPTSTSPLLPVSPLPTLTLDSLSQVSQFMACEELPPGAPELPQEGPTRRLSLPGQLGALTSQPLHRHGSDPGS

IC50 [1] [nM]	IC50 [2] [nM]	Kinetic_solubility [5]	hepatic extraction ratio at 1 h, 1 µM [6]	solubility kinetic [5] [µg/mL]	SMILES	also measured
434	324				C[C@@](c1ccc(-c2cnc(N)nc2)nc1)(c1noc(N2CCC(O)CC2)n1)C1CC1	inhibition at 5 min, 41 µM (hERG (KCNH2) [3]): 17%
16	72	Soluble	< 0.24		CC1(O)CN(c2nc([C@@](C)(c3ccc(-c4cnc(N)nc4)cc3)C3CC3)no2)C1	inhibition at 5 min, 11 µM (hERG (KCNH2) [4]): 13%; solubility [7]: Soluble
12	58	Soluble	0.52		CN(C)C(=O)N1CCN(c2nc([C@@](C)(c3ccc(-c4cnc(N)nc4)cc3)C3CC3)no2)CC1	inhibition at 5 min, 30 µM (hERG (KCNH2) [8]): 36%; solubility [7]: Soluble
13	41	Soluble	< 0.3		CC(C)[C@](C)(c1ccc(-c2cnc(N)nc2)nc1)c1noc(-c2cnn(CC(C)(C)O)c2)n1	solubility thermodynamic at 24 h, 1 µM [7]: 210 µg/mL (≈ 468 µM); inhibition at 30 µM (hERG (KCNH2) [9]): 21%; CL (Rattus norvegicus [10]): 10%; Vd [11]: 2 L/kg; MRT [12]: 4.6 h; bioavailability [13]: 114%; hepatic extraction ratio at 1 h, 1 µM [14]: 0.3
160	315		< 0.24	> 36	Nc1ncc(-c2ccc(C3(c4noc(N5CC(O)C5)n4)CCC3)cc2)cn1	inhibition at 5 min, 12 µM (hERG (KCNH2) [15]): 18%; Ratio IC50 [16]: 2
97	115				CC1(O)CCN(c2nc([C@@](C)(c3ccc(-c4cnc(N)nc4)nc3)C3CC3)no2)CC1	inhibition at 5 min, 30 µM (hERG (KCNH2) [8]): 17%
	202		< 0.24	> 37	Nc1ncc(-c2ccc(C3(c4noc(N5CC[C@H](O)C5)n4)CCC3)cc2)cn1	Ratio IC50 [16]: 6
	595				Nc1ncc(-c2ccc(C3(c4noc(N5CCC(O)CC5)n4)CCC3)cn2)cn1	inhibition at 5 min, 30 µM (hERG (KCNH2) [8]): 51%
	118		< 0.24	> 39	Nc1ncc(-c2ccc(C3(c4noc(N5CCC(O)CC5)n4)CCC3)cc2)cn1	inhibition at 5 min, 17 µM (hERG (KCNH2) [17]): 40%; Ratio IC50 [16]: 7
53	99	Soluble	0.36		CC(C)(O)CN1CCN(c2nc([C@@](C)(c3ccc(-c4cnc(N)nc4)cc3)C3CC3)no2)CC1	inhibition at 5 min, 14 µM (hERG (KCNH2) [18]): 26%; solubility [7]: Soluble
3	26		< 0.3		Cn1cc(-c2nc([C@@](C)(c3ccc(-c4cnc(N)nc4)nc3)C3CC3)no2)cn1	inhibition at 5 min, 10 µM (hERG (KCNH2) [19]): 13%; hepatic extraction ratio at 1 h, 1 µM [14]: 0.59
					C[C@@](c1ccc(-c2cnc(N)nc2)cc1)(c1noc(N2CCC(O)CC2)n1)C1CC1	inhibition at 5 min, 34 µM (hERG (KCNH2) [20]): 30%; solubility thermodynamic at 24 h, 1 µM [7]: 111 µg/mL (≈ 273 µM); inhibition at 34 µM (hERG (KCNH2) [21]): 30%; CL (Rattus norvegicus [22]): 33%; Vd [23]: 1.6 L/kg; MRT [24]: 1.6 h; bioavailability [25]: 75%
				> 41	Nc1ncc(-c2ccc(C3(c4noc(-c5cnn(C6COC6)c5)n4)CCC3)cc2)cn1	inhibition at 5 min, 11 µM (hERG (KCNH2) [4]): 43%
17	87		0.29	> 40	CC1(O)CCN(c2nc(C3(c4ccc(-c5cnc(N)nc5)cc4)CCC3)no2)CC1	inhibition at 5 min, 16 µM (hERG (KCNH2) [26]): 45%
		Soluble			CC(C)(O)Cn1cc(-c2nc([C@@](C)(c3ccc(-c4cnc(N)nc4)nc3)C3CC3)no2)cn1	solubility thermodynamic at 24 h, 1 µM [7]: 26 µg/mL (≈ 58.2 µM); inhibition at 5 min, 42 µM (hERG (KCNH2) [27]): 34%
